pIC50: −log10 of the molar value. Like-named read-outs stand apart in the source and are kept apart here.
Assays:
LRRK2[G2019S] = LRRK2[G2019S] (Homo sapiens (Human), UniProt Q5S007, G2019S); test: LRRK2 enzyme kinase assay, G2019S; type: biochemical; settings: Table 1; ATP at Km 112 μm
CDK11 = CDK11 (Homo sapiens (Human), UniProt Q9BWU1); test: KinomeScan; type: binding; settings: 1 uM
DCAMKL1 = DCAMKL1 (Homo sapiens (Human), UniProt O15075); test: KinomeScan; type: binding; settings: 1 uM
EGFR (L861Q) = EGFR (L861Q) (Homo sapiens (Human), UniProt P00533, L861Q); test: KinomeScan; type: binding; settings: 1 uM
[1] = target: JAK1 (JH2domain-pseudokinase) (Homo sapiens (Human), UniProt P23458); test: KinomeScan; type: binding; settings: 1 uM
[2] = target: JAK2 (JH1domain-catalytic) (Homo sapiens (Human), UniProt O60674); test: KinomeScan; type: binding; settings: 1 uM
MET (Y1235D) = MET (Y1235D) (Homo sapiens (Human), UniProt P08581, Y1235D); test: KinomeScan; type: binding; settings: 1 uM
p38-alpha = p38-alpha (Homo sapiens (Human), UniProt Q16539); test: KinomeScan; type: binding; settings: 1 uM
PLK2 = PLK2 (Homo sapiens (Human), UniProt Q9NYY3); test: KinomeScan; type: binding; settings: 1 uM
EPH-B1 = EPH-B1 (Homo sapiens (Human), UniProt P54762); test: Dundee profiling
AMPK = test: Dundee profiling
CHK1 = CHK1 (Homo sapiens (Human), UniProt O14757); test: Dundee profiling
TLK1 = TLK1 (Homo sapiens (Human), UniProt Q9UKI8); test: Dundee profiling
CDK9-Cyclin T1 = CDK9-Cyclin T1 (Homo sapiens (Human), UniProt P50750); test: Dundee profiling
PINK = test: Dundee profiling
AMPK (hum) = test: Dundee profiling
EPH-A2 = EPH-A2 (Homo sapiens (Human), UniProt P29317); test: Dundee profiling
PRK2 = PRK2 (Homo sapiens (Human), UniProt Q16513); test: Dundee profiling
EIF2AK3 = EIF2AK3 (Homo sapiens (Human), UniProt Q9NZJ5); test: Dundee profiling
RIPK2 = RIPK2 (Homo sapiens (Human), UniProt O43353); test: Dundee profiling
PAK6 = PAK6 (Homo sapiens (Human), UniProt Q9NQU5); test: Dundee profiling
CK1γ2 = CK1γ2 (Homo sapiens (Human), UniProt P78368); test: Dundee profiling
MEKK1 = MEKK1 (Homo sapiens (Human), UniProt Q13233); test: Dundee profiling
CK2 = test: Dundee profiling
YES1 = YES1 (Homo sapiens (Human), UniProt P07947); test: Dundee profiling
ERK5 = ERK5 (Homo sapiens (Human), UniProt Q13164); test: Dundee profiling
MNK2 = MNK2 (Homo sapiens (Human), UniProt Q9HBH9); test: Dundee profiling
TTK = TTK (Homo sapiens (Human), UniProt P33981); test: Dundee profiling
ASK1 = ASK1 (Homo sapiens (Human), UniProt Q99683); test: Dundee profiling
PKD1 = PKD1 (Homo sapiens (Human), UniProt Q15139); test: Dundee profiling
PRAK = PRAK (Homo sapiens (Human), UniProt Q8IW41); test: Dundee profiling
JNK2 = JNK2 (Homo sapiens (Human), UniProt P45984); test: Dundee profiling
TSSK1 = TSSK1 (Homo sapiens (Human), UniProt Q9BXA7); test: Dundee profiling
SmMLCK = SmMLCK (Homo sapiens (Human), UniProt Q15746); test: Dundee profiling
[3] = read-out: percent remaining enzymatic activity, I1, 1 μM
[4] = read-out: percent remaining enzymatic activity, I10
[5] = read-out: percent remaining enzymatic activity

Sequence of ASK1 (Q99683 whole entry, species assumed): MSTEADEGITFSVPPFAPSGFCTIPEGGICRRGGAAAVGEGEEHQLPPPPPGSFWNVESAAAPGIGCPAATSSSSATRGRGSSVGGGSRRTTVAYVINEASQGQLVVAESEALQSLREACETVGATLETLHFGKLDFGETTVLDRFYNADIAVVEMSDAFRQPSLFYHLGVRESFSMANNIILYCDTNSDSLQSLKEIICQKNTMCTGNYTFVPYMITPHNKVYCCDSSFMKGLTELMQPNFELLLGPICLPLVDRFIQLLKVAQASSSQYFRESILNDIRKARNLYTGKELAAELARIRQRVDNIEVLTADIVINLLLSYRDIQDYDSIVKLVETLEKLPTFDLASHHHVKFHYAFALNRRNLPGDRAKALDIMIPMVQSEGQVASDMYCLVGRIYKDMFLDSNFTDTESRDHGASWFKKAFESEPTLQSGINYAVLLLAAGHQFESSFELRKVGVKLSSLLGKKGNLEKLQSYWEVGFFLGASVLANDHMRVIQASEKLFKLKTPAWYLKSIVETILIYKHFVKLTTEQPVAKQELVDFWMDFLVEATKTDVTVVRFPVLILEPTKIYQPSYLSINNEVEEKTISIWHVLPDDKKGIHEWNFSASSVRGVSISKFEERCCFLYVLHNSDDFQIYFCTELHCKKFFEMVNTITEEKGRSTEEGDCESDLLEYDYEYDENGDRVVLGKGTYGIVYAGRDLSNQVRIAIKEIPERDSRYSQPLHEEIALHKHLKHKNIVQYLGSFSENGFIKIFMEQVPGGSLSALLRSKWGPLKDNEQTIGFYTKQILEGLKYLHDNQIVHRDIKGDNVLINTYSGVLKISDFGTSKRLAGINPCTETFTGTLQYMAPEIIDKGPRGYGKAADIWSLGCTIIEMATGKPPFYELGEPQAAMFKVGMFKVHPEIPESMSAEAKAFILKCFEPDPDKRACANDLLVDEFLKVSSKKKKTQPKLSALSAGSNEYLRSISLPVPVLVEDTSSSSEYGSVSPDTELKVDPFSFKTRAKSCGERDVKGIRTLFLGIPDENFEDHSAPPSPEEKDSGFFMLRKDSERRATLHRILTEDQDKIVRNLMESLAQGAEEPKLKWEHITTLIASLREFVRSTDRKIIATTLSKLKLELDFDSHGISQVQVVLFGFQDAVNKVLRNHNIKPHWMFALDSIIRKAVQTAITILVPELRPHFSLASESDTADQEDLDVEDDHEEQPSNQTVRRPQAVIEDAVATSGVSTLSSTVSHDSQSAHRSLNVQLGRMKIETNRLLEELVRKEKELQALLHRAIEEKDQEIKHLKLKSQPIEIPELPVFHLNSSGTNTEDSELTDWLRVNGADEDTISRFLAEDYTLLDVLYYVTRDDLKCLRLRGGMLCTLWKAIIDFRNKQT
Sequence of RIPK2 (O43353 whole entry, species assumed): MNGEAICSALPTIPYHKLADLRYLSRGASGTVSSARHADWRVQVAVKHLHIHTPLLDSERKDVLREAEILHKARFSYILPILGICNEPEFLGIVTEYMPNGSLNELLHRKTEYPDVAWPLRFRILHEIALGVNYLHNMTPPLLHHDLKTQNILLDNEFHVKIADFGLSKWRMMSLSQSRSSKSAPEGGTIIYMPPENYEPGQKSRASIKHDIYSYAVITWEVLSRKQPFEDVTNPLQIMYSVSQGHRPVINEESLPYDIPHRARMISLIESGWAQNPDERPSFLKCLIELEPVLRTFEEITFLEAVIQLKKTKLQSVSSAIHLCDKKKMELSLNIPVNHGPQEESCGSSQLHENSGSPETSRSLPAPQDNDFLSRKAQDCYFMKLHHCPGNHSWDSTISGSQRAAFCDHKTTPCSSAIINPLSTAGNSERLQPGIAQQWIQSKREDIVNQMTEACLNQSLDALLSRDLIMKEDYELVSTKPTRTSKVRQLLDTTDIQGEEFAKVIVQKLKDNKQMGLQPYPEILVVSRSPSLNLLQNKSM
Sequence of TTK (P33981 whole entry, looked up, species assumed): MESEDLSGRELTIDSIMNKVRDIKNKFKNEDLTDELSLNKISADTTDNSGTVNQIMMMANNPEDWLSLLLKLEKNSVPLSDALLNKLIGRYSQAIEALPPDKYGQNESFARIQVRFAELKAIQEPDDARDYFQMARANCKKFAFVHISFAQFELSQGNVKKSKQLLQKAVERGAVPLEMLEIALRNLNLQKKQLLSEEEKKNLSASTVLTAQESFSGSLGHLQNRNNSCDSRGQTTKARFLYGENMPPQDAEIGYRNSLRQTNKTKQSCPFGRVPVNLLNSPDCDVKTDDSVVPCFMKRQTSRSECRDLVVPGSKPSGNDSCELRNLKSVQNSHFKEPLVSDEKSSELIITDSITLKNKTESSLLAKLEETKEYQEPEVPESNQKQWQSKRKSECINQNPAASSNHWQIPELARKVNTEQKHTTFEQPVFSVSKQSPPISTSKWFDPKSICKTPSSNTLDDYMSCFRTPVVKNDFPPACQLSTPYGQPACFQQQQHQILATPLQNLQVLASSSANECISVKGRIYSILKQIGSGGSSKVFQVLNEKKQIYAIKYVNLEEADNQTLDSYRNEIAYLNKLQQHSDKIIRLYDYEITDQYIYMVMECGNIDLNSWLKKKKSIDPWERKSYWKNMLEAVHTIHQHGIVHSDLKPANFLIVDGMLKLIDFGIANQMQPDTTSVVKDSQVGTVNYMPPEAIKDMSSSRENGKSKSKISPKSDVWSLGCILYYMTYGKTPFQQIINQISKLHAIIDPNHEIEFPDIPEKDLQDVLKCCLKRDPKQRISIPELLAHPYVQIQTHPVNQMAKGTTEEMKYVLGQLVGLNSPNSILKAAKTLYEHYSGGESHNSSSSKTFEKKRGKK
Sequence of YES1 (P07947 whole entry, species assumed): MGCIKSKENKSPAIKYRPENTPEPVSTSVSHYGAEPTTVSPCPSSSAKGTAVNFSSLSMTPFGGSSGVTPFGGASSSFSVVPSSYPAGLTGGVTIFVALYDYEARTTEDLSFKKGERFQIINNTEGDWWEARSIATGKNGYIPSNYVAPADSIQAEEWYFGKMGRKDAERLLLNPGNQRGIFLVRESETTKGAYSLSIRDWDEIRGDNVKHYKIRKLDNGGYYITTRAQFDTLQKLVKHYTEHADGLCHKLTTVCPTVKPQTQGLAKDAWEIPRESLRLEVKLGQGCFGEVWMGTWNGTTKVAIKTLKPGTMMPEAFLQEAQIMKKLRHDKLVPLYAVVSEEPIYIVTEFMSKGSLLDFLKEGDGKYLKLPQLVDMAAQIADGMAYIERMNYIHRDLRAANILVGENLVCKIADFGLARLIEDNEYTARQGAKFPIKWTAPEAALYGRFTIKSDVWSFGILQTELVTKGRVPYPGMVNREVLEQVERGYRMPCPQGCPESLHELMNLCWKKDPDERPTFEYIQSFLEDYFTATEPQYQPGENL
Sequence of MEKK1 (Q13233 whole entry, species assumed): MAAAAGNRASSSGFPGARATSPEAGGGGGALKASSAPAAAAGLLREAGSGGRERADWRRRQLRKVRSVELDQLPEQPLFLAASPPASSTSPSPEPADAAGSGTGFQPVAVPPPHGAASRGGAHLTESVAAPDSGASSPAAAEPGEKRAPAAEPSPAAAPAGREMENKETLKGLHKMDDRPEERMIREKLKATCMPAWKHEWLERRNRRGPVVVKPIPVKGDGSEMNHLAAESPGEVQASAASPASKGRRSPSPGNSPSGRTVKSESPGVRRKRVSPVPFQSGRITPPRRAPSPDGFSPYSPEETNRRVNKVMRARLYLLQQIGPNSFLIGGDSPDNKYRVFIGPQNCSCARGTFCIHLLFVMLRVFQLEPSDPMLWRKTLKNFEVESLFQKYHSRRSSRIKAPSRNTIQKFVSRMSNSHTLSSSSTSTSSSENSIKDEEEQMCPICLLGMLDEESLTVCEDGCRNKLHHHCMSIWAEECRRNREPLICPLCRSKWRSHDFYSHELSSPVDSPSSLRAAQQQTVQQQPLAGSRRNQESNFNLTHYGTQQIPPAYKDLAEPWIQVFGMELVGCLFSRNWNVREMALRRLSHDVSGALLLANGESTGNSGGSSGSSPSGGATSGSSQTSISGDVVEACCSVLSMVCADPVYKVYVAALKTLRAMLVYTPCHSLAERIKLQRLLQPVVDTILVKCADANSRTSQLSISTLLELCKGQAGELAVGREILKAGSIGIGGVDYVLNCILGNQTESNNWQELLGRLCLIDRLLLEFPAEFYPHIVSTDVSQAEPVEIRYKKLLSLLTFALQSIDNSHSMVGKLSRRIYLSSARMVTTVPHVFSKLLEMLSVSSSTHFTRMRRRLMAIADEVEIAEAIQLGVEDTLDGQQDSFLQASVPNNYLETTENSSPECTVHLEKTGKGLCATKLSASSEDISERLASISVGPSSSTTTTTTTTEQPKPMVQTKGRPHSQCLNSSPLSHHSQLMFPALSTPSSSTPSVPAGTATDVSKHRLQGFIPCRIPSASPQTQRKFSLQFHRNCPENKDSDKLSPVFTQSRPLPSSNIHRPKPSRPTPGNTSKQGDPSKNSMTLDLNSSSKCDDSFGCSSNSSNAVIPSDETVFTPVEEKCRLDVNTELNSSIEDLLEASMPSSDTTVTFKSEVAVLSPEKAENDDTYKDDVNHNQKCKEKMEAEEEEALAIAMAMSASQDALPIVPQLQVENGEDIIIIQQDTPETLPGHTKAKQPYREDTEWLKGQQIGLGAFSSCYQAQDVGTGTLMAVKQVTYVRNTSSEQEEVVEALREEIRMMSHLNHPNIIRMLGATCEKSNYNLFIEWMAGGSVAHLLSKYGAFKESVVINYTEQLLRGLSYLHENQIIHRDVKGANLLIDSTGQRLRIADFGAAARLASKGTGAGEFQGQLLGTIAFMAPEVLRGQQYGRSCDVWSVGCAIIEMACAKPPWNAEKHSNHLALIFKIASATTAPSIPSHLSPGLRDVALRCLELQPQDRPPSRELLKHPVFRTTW
Sequence of JAK1 (JH2domain-pseudokinase) (P23458 583-855): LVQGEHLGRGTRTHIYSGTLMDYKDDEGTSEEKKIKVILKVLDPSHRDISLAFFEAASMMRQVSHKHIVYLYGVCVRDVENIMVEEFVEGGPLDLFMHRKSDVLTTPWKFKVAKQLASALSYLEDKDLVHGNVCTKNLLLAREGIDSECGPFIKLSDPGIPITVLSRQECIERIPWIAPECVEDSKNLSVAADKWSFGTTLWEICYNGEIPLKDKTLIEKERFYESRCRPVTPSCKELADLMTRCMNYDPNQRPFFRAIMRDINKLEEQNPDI

Compound CNc1nc(Nc2ccc(C(=O)N3CCOCC3)cc2OC)nc2[nH]cc(Cl)c12 [Compound 18, (4-((5-chloro-4-(methylamino)-7H-pyrrolo[2,3-d]pyrimidin-2-yl)amino)-3-methoxyphenyl)(morpholino)methanone] has a pIC50 (LRRK2[G2019S]) of 8.66, a KinomeScan value (CDK11) of 63 and a KinomeScan value (DCAMKL1) of 74. For the same compound, the KinomeScan value (EGFR (L861Q)) was 57, the KinomeScan value [1] was 99 and the KinomeScan value [2] was 100. The KinomeScan value (MET (Y1235D)) was 100, the KinomeScan value (p38-alpha) was 96 and the KinomeScan value (PLK2) was 100. The remaining activity at 1 µM (EPH-B1; [3]) was 119%, the remaining activity at 1 µM (EPH-B1; [4]) was 126% and the “percent remaining enzymatic activity” value (AMPK; I1, 1 μM) was 112%. The “percent remaining enzymatic activity” value (AMPK; I10) was 103%, the “percent remaining enzymatic activity” value (CHK1; I10) was 93% and the remaining activity at 1 µM (CHK1; [5]) was 110%. It also gave a remaining activity at 1 µM (TLK1; [3]) of 106%, a remaining activity at 1 µM (TLK1; [4]) of 105% and a remaining activity at 1 µM (CDK9-Cyclin T1; [3]) of 105%. The remaining activity at 1 µM (CDK9-Cyclin T1; [4]) was 91%, the “percent remaining enzymatic activity” value (PINK; I1, 1 μM) was 105% and the “percent remaining enzymatic activity” value (PINK; I10) was 89%. For the same compound, the “percent remaining enzymatic activity” value (AMPK (hum); I1, 1 μM) was 104%, the “percent remaining enzymatic activity” value (AMPK (hum); I10) was 92% and the remaining activity at 1 µM (EPH-A2; [3]) was 104%. It also gave a remaining activity at 1 µM (EPH-A2; [4]) of 101%, a remaining activity at 1 µM (PRK2; [3]) of 103% and a remaining activity at 1 µM (PRK2; [4]) of 93%. The remaining activity at 1 µM (EIF2AK3; [3]) was 102%, the remaining activity at 1 µM (EIF2AK3; [4]) was 79% and the remaining activity at 1 µM (RIPK2; [3]) was 102%. For the same compound, the remaining activity at 1 µM (RIPK2; [4]) was 83%, the remaining activity at 1 µM (PAK6; [3]) was 102% and the remaining activity at 1 µM (PAK6; [4]) was 105%. The “percent remaining enzymatic activity” value (CK1γ2; I10) was 45%, the remaining activity at 1 µM (CK1γ2; [5]) was 100% and the remaining activity at 1 µM (MEKK1; [3]) was 94%. For the same compound, the remaining activity at 1 µM (MEKK1; [4]) was 85%, the “percent remaining enzymatic activity” value (CK2; I1, 1 μM) was 94% and the “percent remaining enzymatic activity” value (CK2; I10) was 70%. The “percent remaining enzymatic activity” value (YES1; I10) was 85%, the remaining activity at 1 µM (YES1; [5]) was 85% and the remaining activity at 1 µM (ERK5; [3]) was 76%. For the same compound, the remaining activity at 1 µM (ERK5; [4]) was 52%, the remaining activity at 1 µM (MNK2; [3]) was 75% and the remaining activity at 1 µM (MNK2; [4]) was 25%. For the same compound, the remaining activity at 1 µM (TTK; [3]) was 69%, the remaining activity at 1 µM (TTK; [4]) was 12% and the remaining activity at 1 µM (ASK1; [3]) was 56%. The remaining activity at 1 µM (ASK1; [4]) was 10%, the remaining activity at 1 µM (PKD1; [3]) was 47% and the remaining activity at 1 µM (PKD1; [4]) was 7%. The remaining activity at 1 µM (PRAK; [3]) was 43%, the remaining activity at 1 µM (PRAK; [4]) was 6% and the “percent remaining enzymatic activity” value (JNK2; I10) was 4%. The remaining activity at 1 µM (JNK2; [5]) was 27%, the remaining activity at 1 µM (TSSK1; [3]) was 14% and the remaining activity at 1 µM (TSSK1; [4]) was 7%. The pIC50 (SmMLCK) was 7.09, the inhibition at 1 µM (SmMLCK; read-out: inhibition of kinase activity of the DMSO control) was over 90% and the remaining activity at 1 µM (SmMLCK; [3]) was 9%. The remaining activity at 1 µM (SmMLCK; [4]) was 1%.

Reference: patent publication US10913744B2, “LRRK2 inhibitors and methods of making and using the same” (Dana-Farber Cancer Institute, Inc., priority 2015, dated 2021)
